According to patent US7842698B2, “Pyridine methylene azolidinones and use thereof phosphoinositide inhibitors” (Merck Serono S.A., priority 2004, dated 2010):
Counter-ions that a name gives are not always drawn. Like-named read-outs stand apart in the source and are kept apart here.

What was measured:
[1] = target: Human recombinant GST-PI3Kγ (Homo sapiens, UniProt P48736); assay: High throughput PI3K lipid kinase assay (scintillation proximity assay, neomycin-coated SPA beads); assay type: biochemical; settings: [33P]γ-ATP, 180 minutes at room temperature
Source text: a) High Throughput PI3K Lipid Kinase Assay (Binding Assay):
The efficacy of compounds of the invention in inhibiting the PI3K induced-lipid phosphorylation may be tested in the following binding assay.
The assay combines the scintillation proximity assay technology (SPA, Amersham) with the capacity of neomycin (a polycationic antibiotic) to bind phospholipids with high affinity and specificity. The Scintillation Proximity Assay is based on the properties of weakly emitting isotopes (such as ^3H, ^125I, ^33P). Coating SPA beads with neomycin allows the detection of phosphorylated lipid substrates after incubation with recombinant PI3K and radioactive ATP in the same well, by capturing the radioactive phospholipids to the SPA beads through their specific binding to neomycin.
To a 384 wells MTP containing 5 μl of the test compound of Formula (I) (solubilized in 6% DMSO; to yield a concentration of 100, 30, 10, 3, 1, 0.3, 0.1, 0.03, 0.01, 0.001 μM of the test compound), the following assay components are added. 1) 5 μl (58 ng) of Human recombinant GST-PI3Kγ (in Hepes 40 mM, pH 7.4, DTT 1 mM and ethyleneglycol 5%) 2) 10 μl of lipid micelles and 3) 10 μl of Kinase buffer ([^33P]γ-ATP 45 μM/60 n Ci, MgCl2 30 mM, DTT 1 mM, β-Glycerophosphate 1 mM, Na3VO4 100 μM, Na Cholate 0.3%, in Hepes 40 mM, pH 7.4). After incubation at room temperature for 180 minutes, with gentle agitation, the reaction is stopped by addition of 60 μl of a solution containing 100 μg of neomycin-coated PVT SPA beads in PBS containing ATP 10 mM and EDTA 5 mM. The assay is further incubated at room temperature for 60 minutes with gentle agitation to allow binding of phospholipids to neomycin-SPA beads. After precipitation of the neomycin-coated PVT SPA beads for 5 minutes at 1500× g, radioactive PtdIns(3)P is quantified by scintillation counting in a Wallac MicroBeta™ plate counter.
The values indicated in Table I below refer to the IC50 (nM) with respect to PI3Kγ, i.e. the amount necessary to achieve 50% inhibition of said target. Said values show a considerable inhibitory potency of thiazole compounds with regard to PI3Kγ.

[2] = system: Akt/PKB phosphorylation in Raw 264-7 macrophages; assay: Cell based ELISA to monitor PI3K inhibition: Akt/PKB phosphorylation in macrophages after stimulation with Complement 5a; settings: Mus musculus, RAW264.7, 50 nM Complement 5a for 5 minutes, inhibitors pretreated 20 minutes, phospho Serine 473 Akt, read-out: Cell Assay (P-Akt, Elisa) IC50
Experimental: b) Cell Based ELISA to Monitor PI3K Inhibition:
The efficacy of compounds of the invention in inhibiting the PI3K induced Akt/PKB phosphorylation may be tested in the following cell based assay.
Measurement of Akt/PKB phosphorylation in macrophages after stimulation with Complement 5a: Raw 264: Raw 264-7 macrophages (cultured in DMEM-F12 medium containing 10% Fetal Calf serum and antibiotics) are plated at 20′000 cells/well in a 96 MTP 24 h before cell stimulation. Previous to the stimulation with 50 nM of Complement 5a during 5 minutes, Cells are serum starved for 2 h, and pretreated with inhibitors for 20 minutes. After stimulation cells are fixed in 4% formaldehyde for 20 minutes and washed 3 times in PBS containing 1% Triton X-100 (PBS/Triton). Endogenous peroxidase is blocked by a 20 minutes incubation in 0.6% H2O2 and 0.1% Sodium Azide in PBS/Triton and washed 3 times in PBS/Triton. Cells are then blocked by 60 minutes incubation with 10% fetal calf serum in PBS/Triton. Next, phosphorylated Akt/PKB is detected by an overnight incubation at 4° C. with first antibody (anti phospho Serine 473 Akt IHC, Cell Signaling) diluted 800-fold in PBS/Triton, containing 5% bovine serum albumin (BSA). […] The reaction is stopped by addition of 50 μl of 1 M SO4H2 and absorbance is read at 450 nm. […]

[3] = system: Class I PI3-kinases; settings: Fruman et al., 1998, cited from earlier work
[4] = system: phospholipases; settings: cited from earlier work

Human recombinant GST-PI3Kγ, sequence (P48736 whole entry): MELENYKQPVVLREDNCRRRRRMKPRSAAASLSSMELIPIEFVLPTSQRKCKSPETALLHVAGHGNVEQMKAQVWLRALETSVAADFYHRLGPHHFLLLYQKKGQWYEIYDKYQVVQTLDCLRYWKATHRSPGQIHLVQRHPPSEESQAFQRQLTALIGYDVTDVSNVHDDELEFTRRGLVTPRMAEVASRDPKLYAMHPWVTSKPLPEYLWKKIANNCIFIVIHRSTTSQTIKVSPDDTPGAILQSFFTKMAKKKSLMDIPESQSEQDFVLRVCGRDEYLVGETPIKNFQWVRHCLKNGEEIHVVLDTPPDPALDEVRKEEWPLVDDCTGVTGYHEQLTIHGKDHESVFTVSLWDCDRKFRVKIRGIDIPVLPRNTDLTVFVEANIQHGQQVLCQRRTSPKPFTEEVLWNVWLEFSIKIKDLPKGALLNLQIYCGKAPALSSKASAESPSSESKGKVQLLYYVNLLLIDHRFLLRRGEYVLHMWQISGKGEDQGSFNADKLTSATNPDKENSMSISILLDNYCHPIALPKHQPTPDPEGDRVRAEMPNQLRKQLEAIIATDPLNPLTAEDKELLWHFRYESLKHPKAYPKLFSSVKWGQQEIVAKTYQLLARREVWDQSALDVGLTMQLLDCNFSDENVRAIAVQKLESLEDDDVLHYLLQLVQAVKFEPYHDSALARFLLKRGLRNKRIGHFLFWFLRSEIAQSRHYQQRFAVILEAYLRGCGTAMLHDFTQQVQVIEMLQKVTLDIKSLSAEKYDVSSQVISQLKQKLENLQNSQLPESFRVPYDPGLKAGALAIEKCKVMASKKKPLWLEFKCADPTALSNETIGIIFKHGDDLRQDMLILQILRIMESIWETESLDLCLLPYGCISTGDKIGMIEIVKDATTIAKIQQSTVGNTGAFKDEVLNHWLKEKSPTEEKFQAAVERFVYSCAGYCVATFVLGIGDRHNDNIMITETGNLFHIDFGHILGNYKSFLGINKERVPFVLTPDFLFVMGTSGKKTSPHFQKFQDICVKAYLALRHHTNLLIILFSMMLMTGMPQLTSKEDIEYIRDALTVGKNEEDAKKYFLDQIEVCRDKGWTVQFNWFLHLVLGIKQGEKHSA

## O=C1NC(=O)/C(=C/c2ccc3ncnc(N4CCCCC4)c3n2)S1 (as salt: potassium) [Example 1, (5Z)-5-{[4-(1-piperidinyl)pyrido[3,2-d]pyrimidin-6-yl]methylene}-1,3-thiazolidine-2,4-dione potassium salt]
other
  melting point: 319 °C

## O=C1NC(=O)/C(=C/c2ccc3ncnc(N4CCCCC4)c3n2)S1 [Example 1, (5Z)-5-{[4-(1-piperidinyl)pyrido[3,2-d]pyrimidin-6-yl]methylene}-1,3-thiazolidine-2,4-dione potassium salt]
[1]
  IC50: 4 nM
[2]
  IC50: < 10 nM

## O=C1NC(=O)/C(=C/c2ccc3ncnc(N4CCC(C(F)(F)F)CC4)c3n2)S1 [Example 3, (5Z)-5-({4-[4-(trifluoromethyl)-1-piperidinyl]pyrido[3,2-d]pyrimidin-6-yl}methylene)-1,3-thiazolidine-2,4-dione potassium salt]
[1]
  IC50: 6 nM
[2]
  IC50: < 10 nM

## O=C1NC(=O)/C(=C/c2ccc3nccnc3n2)S1 [Example 4, 5-Pyrido[2,3-b]pyrazin-6-ylmethylene-thiazolidine-2,4-dione]
[1]
  IC50: 20 nM

## O=C1NC(=O)/C(=C/c2ccc3occc3n2)S1 [Example 5, 5-Furo[3,2-b]pyridin-5-ylmethylene-thiazolidine-2,4-dione]
[1]
  IC50: 35 nM

## O=C1NC(=S)SC1=Cc1ccc2ncnc(N3CCC(F)CC3)c2n1 [Example 6, 5-[4-(4-Fluoro-piperidin-1-yl)-pyrido[3,2-d]pyrimidin-6-ylmethylene]-2-thioxo-thiazolidin-4-one]
[1]
  IC50: 2 nM

## COc1cc(OC)cc(-n2cnc3ccc(/C=C4\SC(=O)NC4=O)nc32)c1 [Example 8, (5Z)-5-{[3-(3,5-dimethoxyphenyl)-3H-imidazo[4,5-b]pyridin-5-yl]methylene}-1,3-thiazolidine-2,4-dione]
[1]
  IC50: 10 nM

## CN(C)CCCC(=O)N1CCc2cc(-n3cnc4ccc(/C=C5\SC(=O)NC5=O)nc43)ccc21 [Example 12, (5Z)-5-[(3-{1-[4-(dimethylamino)butanoyl]-2,3-dihydro-1H-indol-5-yl}-3H-imidazo[4,5-b]pyridin-5-yl)methylene]-1,3-thiazolidine-2,4-dione]
[1]
  IC50: 7 nM

## O=c1cc(N2CCOCC2)oc2c(-c3ccccc3)cccc12 [LY294002]
[3]; LY294002, read-out: IC50 against each of these PI3-kinases (Class I)
  IC50: 15000 to 20000 nM
[4]
  inhibitory activity on phospholipases: some inhibitory activity

## COC[C@H]1OC(=O)c2coc3c2[C@@]1(C)C1=C(C3=O)[C@@H]2CCC(=O)[C@@]2(C)C[C@H]1OC(C)=O [wortmannin]
[3]; wortmannin, read-out: IC50 against each of the various Class I PI3-kinases
  IC50: 1 to 10 nM
